Results from patent US20190327974A1, “SYNERGISTS FOR IMPROVED PESTICIDES” (priority 2017, published 2019).

Tests used:
Test in all cases: Protease selectivity panel
Format in all cases: biochemical
Details in all cases: 100 μM compound, n = 2
DPP9 = target: T1, DPP9 (Homo sapiens, UniProt Q86TI2)
T1 construct: purchased ENZO
Protocol: (§1) Test compounds were dissolved in 100% DMSO to make 10 mM stock. Final compound concentration in assay is […]. Compounds were tested in duplicate wells at single concentration and the final concentration of DMSO in all assays was kept at 1%. Five reference compounds, AEBSF, Carfilzomib, Granzyme B Inhibitor II, Dec-RVKR-CMK, and Teneligliptin hydrobromide, were tested in an identical manner with 8 concentration points at 5× dilutions.

Factor-Xa = target: T2, Factor-Xa (Homo sapiens, UniProt P00742)
T2 construct: Factor Xa; Calbiochem; B76791; purchased Calbiochem
Protocol: as §1

GranzymeA = target: T3, GranzymeA (Homo sapiens, UniProt P12544)
T3 construct: purchased ENZO
T3 sequence (P12544 29-262): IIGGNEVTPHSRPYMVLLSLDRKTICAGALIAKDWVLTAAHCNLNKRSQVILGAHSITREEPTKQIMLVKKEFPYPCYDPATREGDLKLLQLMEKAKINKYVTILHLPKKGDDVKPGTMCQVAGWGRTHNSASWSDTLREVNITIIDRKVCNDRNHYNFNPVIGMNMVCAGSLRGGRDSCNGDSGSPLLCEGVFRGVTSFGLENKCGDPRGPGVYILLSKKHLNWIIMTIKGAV
Protocol: as §1

HTRA2 = target: T4, HTRA2 (Homo sapiens, UniProt O43464)
T4 construct: purchased R&D Systems
T4 sequence (O43464 134-458): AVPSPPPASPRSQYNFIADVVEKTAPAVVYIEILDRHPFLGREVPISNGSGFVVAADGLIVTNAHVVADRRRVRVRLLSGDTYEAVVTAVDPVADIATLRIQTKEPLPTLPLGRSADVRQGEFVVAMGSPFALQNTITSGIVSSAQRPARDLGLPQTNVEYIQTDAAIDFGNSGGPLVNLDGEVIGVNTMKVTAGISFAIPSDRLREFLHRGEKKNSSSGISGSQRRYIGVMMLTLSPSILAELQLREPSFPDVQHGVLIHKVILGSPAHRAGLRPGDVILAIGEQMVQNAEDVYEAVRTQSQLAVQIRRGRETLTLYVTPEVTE
Protocol: as §1

Kallikrein13 = target: T5, Kallikrein13 (Homo sapiens, UniProt Q9UKR3)
T5 construct: purchased R&D Systems
T5 sequence (Q9UKR3 26-277 limits assumed): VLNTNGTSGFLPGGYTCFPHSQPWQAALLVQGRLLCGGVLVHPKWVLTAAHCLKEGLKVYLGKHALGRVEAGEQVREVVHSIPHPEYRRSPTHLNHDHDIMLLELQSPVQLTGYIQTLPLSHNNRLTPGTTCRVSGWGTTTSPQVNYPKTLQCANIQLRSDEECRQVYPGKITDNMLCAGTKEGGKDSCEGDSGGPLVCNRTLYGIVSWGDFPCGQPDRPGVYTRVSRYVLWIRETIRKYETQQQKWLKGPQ
Protocol: as §1

PSMB7 = target: T6, PSMB7 (Homo sapiens, UniProt Q99436)
T6 construct: purchased BOSTON-BIOCHEM
Protocol: as §1

PSMB8 = target: T7, PSMB8 (Homo sapiens, UniProt P28062)
T7 construct: purchased BOSTON-BIOCHEM
Protocol: as §1

PSMB9 = target: T8, PSMB9 (Homo sapiens, UniProt P28065)
T8 construct: purchased BOSTON-BIOCHEM
Protocol: as §1

Plasma-Kallikrein = target: T9, Plasma-Kallikrein (Homo sapiens, UniProt P03952)
T9 construct: purchased R&D Systems
Protocol: as §1

Prolyl Oligopeptidase = target: T10, Prolyl Oligopeptidase (Homo sapiens, UniProt P48147)
T10 construct: purchased R&D Systems
T10 sequence (P48147 1-710): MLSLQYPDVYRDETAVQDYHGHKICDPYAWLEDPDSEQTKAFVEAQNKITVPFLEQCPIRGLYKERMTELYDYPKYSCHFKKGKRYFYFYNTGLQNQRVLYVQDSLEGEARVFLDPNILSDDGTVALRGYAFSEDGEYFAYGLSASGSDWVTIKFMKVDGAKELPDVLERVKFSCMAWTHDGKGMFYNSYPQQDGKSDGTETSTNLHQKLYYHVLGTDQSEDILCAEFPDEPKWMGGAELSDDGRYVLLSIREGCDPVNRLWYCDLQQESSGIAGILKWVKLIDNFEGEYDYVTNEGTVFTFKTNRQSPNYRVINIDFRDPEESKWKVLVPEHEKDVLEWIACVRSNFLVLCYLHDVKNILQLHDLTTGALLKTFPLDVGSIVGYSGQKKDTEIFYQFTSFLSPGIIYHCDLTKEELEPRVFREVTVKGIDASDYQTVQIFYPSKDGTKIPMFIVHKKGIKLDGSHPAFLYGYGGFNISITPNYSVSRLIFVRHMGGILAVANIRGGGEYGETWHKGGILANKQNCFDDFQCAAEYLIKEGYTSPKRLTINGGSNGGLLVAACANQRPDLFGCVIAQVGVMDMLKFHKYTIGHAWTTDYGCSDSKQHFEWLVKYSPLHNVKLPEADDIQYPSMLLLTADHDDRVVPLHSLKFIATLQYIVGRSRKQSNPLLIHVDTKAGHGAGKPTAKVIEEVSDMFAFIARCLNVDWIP
Protocol: as §1

Spinesin = target: T11, Spinesin (Homo sapiens, UniProt Q9H3S3)
T11 construct: purchased R&D Systems
Protocol: as §1

Thrombin = target: T12, Thrombin (Homo sapiens, UniProt P00734)
T12 construct: Thrombin; purchased R&D Systems
Protocol: as §1

tPA = target: T13, tPA (Homo sapiens, UniProt P00750)
T13 construct: purchased R&D Systems
Protocol: as §1

uPA = target: T14, uPA (Homo sapiens, UniProt P00749)
T14 construct: purchased R&D Systems
Protocol: as §1

T13 sequence (P00750 36-562): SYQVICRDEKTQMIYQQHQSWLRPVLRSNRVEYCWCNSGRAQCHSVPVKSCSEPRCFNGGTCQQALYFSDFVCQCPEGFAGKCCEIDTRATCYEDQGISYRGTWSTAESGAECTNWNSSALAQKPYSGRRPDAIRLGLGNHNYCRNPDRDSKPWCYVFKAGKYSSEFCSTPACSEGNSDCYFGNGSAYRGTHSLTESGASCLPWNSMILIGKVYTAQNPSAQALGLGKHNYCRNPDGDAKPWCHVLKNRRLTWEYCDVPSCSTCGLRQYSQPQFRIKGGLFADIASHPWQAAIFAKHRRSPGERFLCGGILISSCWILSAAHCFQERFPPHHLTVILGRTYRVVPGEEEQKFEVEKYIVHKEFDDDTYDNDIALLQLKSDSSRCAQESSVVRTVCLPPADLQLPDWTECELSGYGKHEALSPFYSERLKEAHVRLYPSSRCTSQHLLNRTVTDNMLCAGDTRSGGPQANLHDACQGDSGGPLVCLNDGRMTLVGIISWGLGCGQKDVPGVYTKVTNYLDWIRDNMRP
T2 sequence (P00742 235-488 limits assumed): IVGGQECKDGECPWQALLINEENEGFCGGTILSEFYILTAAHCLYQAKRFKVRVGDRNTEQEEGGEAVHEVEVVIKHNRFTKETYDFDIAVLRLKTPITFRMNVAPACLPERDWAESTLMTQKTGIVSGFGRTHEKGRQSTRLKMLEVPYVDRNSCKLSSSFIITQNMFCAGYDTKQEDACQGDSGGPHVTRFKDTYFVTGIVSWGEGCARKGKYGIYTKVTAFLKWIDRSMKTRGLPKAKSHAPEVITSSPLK
T2 sequence (P00742 41-179 partner limits assumed): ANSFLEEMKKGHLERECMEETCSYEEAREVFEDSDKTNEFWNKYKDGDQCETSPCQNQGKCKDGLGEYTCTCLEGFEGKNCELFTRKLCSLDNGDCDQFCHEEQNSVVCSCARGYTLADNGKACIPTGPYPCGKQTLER
T1 sequence (Q86TI2 whole entry): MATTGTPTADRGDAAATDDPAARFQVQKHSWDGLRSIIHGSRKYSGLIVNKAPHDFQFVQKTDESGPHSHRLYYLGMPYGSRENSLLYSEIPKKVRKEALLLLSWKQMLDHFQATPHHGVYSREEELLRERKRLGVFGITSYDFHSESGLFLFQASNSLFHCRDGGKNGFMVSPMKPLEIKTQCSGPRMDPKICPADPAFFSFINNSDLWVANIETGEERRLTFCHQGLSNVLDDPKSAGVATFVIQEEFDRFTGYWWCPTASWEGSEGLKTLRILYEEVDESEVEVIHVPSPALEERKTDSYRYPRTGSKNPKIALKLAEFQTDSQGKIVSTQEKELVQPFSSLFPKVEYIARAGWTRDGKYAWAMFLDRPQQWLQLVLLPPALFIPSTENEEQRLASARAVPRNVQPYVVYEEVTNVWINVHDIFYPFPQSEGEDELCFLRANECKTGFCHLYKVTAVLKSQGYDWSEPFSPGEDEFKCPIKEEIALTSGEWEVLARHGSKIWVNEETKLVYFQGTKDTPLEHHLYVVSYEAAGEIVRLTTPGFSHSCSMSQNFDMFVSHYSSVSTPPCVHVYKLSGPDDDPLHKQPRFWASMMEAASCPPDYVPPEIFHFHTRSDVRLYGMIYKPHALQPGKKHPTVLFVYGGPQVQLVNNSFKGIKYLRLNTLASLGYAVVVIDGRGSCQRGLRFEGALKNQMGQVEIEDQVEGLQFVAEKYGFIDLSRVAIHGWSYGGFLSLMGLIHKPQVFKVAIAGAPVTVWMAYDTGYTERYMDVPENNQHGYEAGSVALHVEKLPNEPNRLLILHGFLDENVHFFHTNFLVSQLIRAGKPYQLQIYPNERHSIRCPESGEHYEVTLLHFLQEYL
T9 sequence (P03952 20-638): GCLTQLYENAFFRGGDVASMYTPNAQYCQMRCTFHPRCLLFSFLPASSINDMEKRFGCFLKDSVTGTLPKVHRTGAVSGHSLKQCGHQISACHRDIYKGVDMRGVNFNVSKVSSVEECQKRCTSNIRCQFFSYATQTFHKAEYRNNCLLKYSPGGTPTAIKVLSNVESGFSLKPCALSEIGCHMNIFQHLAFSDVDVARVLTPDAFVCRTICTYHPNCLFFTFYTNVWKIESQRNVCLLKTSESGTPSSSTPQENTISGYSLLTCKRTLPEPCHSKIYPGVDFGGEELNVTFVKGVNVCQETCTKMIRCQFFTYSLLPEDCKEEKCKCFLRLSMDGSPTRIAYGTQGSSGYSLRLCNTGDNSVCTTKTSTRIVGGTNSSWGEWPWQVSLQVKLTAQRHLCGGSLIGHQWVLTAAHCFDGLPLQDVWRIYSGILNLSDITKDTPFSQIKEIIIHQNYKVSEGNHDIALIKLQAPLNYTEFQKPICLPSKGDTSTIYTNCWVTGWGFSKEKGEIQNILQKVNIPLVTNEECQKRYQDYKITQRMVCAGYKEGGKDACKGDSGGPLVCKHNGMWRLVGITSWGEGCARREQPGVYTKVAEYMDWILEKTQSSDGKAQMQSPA
T11 sequence (Q9H3S3 218-457 limits assumed): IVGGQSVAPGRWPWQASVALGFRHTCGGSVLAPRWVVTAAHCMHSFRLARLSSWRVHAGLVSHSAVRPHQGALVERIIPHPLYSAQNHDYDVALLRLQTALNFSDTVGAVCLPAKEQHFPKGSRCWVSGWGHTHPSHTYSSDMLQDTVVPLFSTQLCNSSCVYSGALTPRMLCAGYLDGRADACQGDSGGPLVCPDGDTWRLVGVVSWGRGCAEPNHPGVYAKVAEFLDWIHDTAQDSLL

SMILES | inhibition at 100 µM (DPP9) | inhibition at 100 µM (Factor-Xa) | inhibition at 100 µM (GranzymeA) | inhibition at 100 µM (HTRA2) | inhibition at 100 µM (Kallikrein13) | inhibition at 100 µM (PSMB7) | inhibition at 100 µM (PSMB8) | inhibition at 100 µM (PSMB9) | inhibition at 100 µM (Plasma-Kallikrein) | inhibition at 100 µM (Prolyl Oligopeptidase) | inhibition at 100 µM (Spinesin) | inhibition at 100 µM (Thrombin) | inhibition at 100 µM (tPA) | inhibition at 100 µM (uPA)
OB(O)c1cc(Br)cc(OCc2ccccc2)c1 [Compound 3.9] | 75% | 26% | 23% | 28% | -1% | 70% | 52% | 50% | 41% | 48% | 13% | 54% | 40% | 40%
OB(O)c1cc(Br)cc(Oc2ccccc2)c1 [Compound 3.10, 3-Bromo-5-phenoxyfenylboronic acid] | 71% | 35% | 12% | 2% | 0% | 48% | 49% | 15% | 64% | 30% | 34% | 58% | 19% | 32%
OB(O)c1cc(Br)cc(N2CCCC2)c1 [Compound 3] | 45% | 53% | 12% | 23% | 3% | 39% | 19% | 12% | 6% | 61% | 26% | 32% | 26% | 67%
